Legend:
[1] = phase II clinical trial, endometriosis; trial was terminated; cited from earlier work
[2] = target: T1, 17β-Hydroxysteroid Dehydrogenase Type 2 Enzyme (17β-HSD2) (Homo sapiens, UniProt P37059); test: Inhibition of the 17β-hydroxysteroid dehydrogenase type 2 enzyme, 3H-testosterone conversion; type: biochemical; conditions: inhibitor at 10 μM
T1 construct: made in house; host or cells: Sf-9 insect cells (baculovirus)
T1 sequence (P37059 1-387): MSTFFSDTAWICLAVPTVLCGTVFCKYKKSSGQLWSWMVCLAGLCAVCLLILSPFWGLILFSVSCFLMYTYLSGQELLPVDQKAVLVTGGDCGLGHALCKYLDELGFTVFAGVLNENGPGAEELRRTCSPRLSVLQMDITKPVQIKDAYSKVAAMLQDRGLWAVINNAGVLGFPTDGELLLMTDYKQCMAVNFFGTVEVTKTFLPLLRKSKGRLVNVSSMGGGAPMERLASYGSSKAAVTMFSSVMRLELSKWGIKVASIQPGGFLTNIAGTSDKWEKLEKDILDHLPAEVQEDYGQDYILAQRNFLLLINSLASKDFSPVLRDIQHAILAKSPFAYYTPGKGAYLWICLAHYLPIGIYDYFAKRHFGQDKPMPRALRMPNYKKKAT
Procedure, shortened: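 Single-point screen at 10 μM inhibitor, 1% DMSO: Sf-9-expressed human enzyme (105 nM), NAD 1 mM, ³H-labelled testosterone 56.25 nM, pH 8.5 phosphate/EDTA buffer, 30 min, room temperature. After TCA quench, substrate and product radioactivity quantified by UPLC with scintillation detection; inhibition percent from conversion.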

[3] = target: T2, Recombinant human aldo-keto reductase family 1 member C2 (AKR1C2) protein (Homo sapiens, UniProt P52895); test: Inhibition of the aldo-keto reductase family 1 member C2, 3H-dihydrotestosterone conversion; type: biochemical; conditions: inhibitor at 10 μM
T2 construct: made in house; host or cells: Sf-9 insect cells (baculovirus)
T2 sequence (P52895 1-323): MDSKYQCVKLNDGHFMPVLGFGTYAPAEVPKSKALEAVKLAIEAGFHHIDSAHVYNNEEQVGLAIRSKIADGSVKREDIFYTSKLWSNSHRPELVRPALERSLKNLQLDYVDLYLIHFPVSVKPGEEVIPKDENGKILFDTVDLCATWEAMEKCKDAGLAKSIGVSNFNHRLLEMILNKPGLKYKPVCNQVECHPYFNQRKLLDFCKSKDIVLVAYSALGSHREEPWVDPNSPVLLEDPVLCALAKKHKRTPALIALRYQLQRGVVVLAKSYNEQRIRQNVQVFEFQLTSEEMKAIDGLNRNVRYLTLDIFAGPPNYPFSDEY
Procedure, shortened: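 Single-point screen at 10 μM inhibitor, 1% DMSO: [3H]DHT (6.25 nM) reduction to 3α-diol by baculovirus-made AKR1C2 (13.6 nM), pH 7.4 phosphate buffer, 1 mM NADPH, 37 °C for 45 min. Radio-UPLC quantified product versus substrate to give percent inhibition.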

[4] = target: T3, Recombinant human AKR1C3 (17β-HSD5) protein (Homo sapiens, UniProt P42330); test: Inhibition of AKR1C3 (17β-hydroxysteroid dehydrogenase type 5) enzyme, fluorescence assay; type: biochemical; conditions: inhibitor at 500 nM
T3 construct: made in house; host or cells: E. coli
T3 sequence (P42330 1-323): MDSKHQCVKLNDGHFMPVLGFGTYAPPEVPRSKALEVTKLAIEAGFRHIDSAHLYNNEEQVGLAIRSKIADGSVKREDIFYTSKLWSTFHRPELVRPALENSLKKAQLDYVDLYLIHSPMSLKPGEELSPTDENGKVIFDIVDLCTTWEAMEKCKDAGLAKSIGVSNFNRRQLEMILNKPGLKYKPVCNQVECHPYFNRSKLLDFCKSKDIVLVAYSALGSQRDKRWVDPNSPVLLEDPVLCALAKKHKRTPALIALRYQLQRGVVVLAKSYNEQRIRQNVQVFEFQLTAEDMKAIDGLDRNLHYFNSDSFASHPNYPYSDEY
Procedure, shortened: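 Percent inhibition at 500 nM compound, derived from substrate conversion; product alcohol measured by fluorescence (ex 420, em 510 nm) against a 1 μM–10 nM standard curve. Reaction: 27 nM recombinant AKR1C3, 1 μM ketone substrate, 1 mM NADPH, phosphate/EDTA buffer pH 7.4, 1% DMSO, RT for 60–120 min.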

Compound	bilirubin levels of patients [1]	inhibition at 10 µM [2] [%]	inhibition at 10 µM [3] [%]	inhibition at 0.5 µM [4] [%]
CN(CCC(=O)O)C(=O)c1ccc2c(c1)CC[C@@H]1[C@@H]2CC[C@]2(C)C(c3cncc(F)c3)=CC[C@@H]12 [BAY-1128688]	raised bilirubin levels			
COCC1CCN(C(=O)N2CCC(=C(C#N)c3ccc(F)cc3)CC2)CC1 [Compound 106, 2-(4-fluorophenyl)-2-(1-(4-(methoxymethyl)piperidine-1-carbonyl)piperidin-4-ylidene)acetonitrile]		2	5	93
N#CC(=C1CCN(C(=O)N2CCC(C(F)(F)F)CC2)CC1)c1ccc(Cl)cn1 [Compound 135, 2-(5-chloropyridin-2-yl)-2-(1-(4-(trifluoromethyl)piperidine-1-carbonyl)piperidin-4-ylidene)acetonitrile]		4	3	92
CCN(CC)C(=O)N1CCC(=C(C#N)c2ccc(F)cc2)CC1 [Compound 5, 4-(cyano(4-fluorophenyl)methylene)-N,N-diethylpiperidine-1-carboxamide]		15	15	99
N#CC(=C1CCN(C(=O)N2CCSCC2)CC1)c1ccc(F)cc1 [Compound 100, 2-(4-fluorophenyl)-2-(1-(thiomorpholine-4-carbonyl)piperidin-4-ylidene)acetonitrile]		-2	6	92
CN(C(=O)N1CCC(=C(C#N)c2ccc(Cl)s2)CC1)C1COC1 [Compound 103, 4-((5-chlorothiophen-2-yl)(cyano)methylene)-N-methyl-N-(oxetan-3-yl)piperidine-1-carboxamide]		-4	19	95
N#CC(=C1CCN(C(=O)N2CCc3nocc3C2)CC1)c1cccc2[nH]ncc12 [Compound 138, 2-(1H-indazol-4-yl)-2-(1-(4,5,6,7-tetrahydroisoxazolo[4,3-c]pyridine-5-carbonyl)piperidin-4-ylidene)acetonitrile]		13	31	98
N#CC(=C1CCN(C(=O)N2CCc3[nH]ncc3C2)CC1)c1ccc(F)cc1F [Compound 122, 2-(2,4-difluorophenyl)-2-(1-(4,5,6,7-tetrahydro-1H-pyrazolo[4,3-c]pyridine-5-carbonyl)piperidin-4-ylidene)acetonitrile]		24	42	99
COC1CCN(C(=O)N2CCC(=C(C#N)c3ccc(C(F)(F)F)cc3)CC2)CC1 [Compound 146, 2-(1-(4-methoxypiperidine-1-carbonyl)piperidin-4-ylidene)-2-(4-(trifluoromethyl)phenyl)acetonitrile]		15	2	100
N#CC(=C1CCN(C(=O)N2CCC(O)CC2)CC1)c1cncc(Cl)c1 [Compound 86, 2-(5-chloropyridin-3-yl)-2-(1-(4-hydroxypiperidine-1-carbonyl)piperidin-4-ylidene)acetonitrile]		27	0	80
CN(C)C(=O)N1CCC(=C(C#N)c2ccc(F)cc2)CC1 [Compound 16, 4-(cyano(4-fluorophenyl)methylene)-N,N-dimethylpiperidine-1-carboxamide]		14	8	97
N#CC(=C1CCN(C(=O)N2CCc3nocc3C2)CC1)c1ccc(F)c(F)c1 [Compound 32, 2-(3,4-difluorophenyl)-2-(1-(4,5,6,7-tetrahydroisoxazolo[4,3-c]pyridine-5-carbonyl)piperidin-4-ylidene)acetonitrile]		4	17	97
N#CC(=C1CCN(C(=O)N2CCCC2)CC1)c1ccc(F)cc1 [Compound 6, 2-(4-fluorophenyl)-2-(1-(pyrrolidine-1-carbonyl)piperidin-4-ylidene)acetonitrile]		10	8	95
N#CC(=C1CCN(C(=O)N2CC[C@H](O)C2)CC1)c1ccc(F)cc1 [Compound 9, (S)-2-(4-fluorophenyl)-2-(1-(3-hydroxypyrrolidine-1-carbonyl)piperidin-4-ylidene)acetonitrile]		13	4	89
N#CC(=C1CCN(C(=O)N2CCC(CO)CC2)CC1)c1ccc(Cl)s1 [Compound 63, 2-(5-chlorothiophen-2-yl)-2-(1-(4-(hydroxymethyl)piperidine-1-carbonyl)piperidin-4-ylidene)acetonitrile]		22	29	99
N#CC(=C1CCN(C(=O)N2CCn3nncc3C2)CC1)c1ccc(F)cc1 [Compound 13, 2-(4-fluorophenyl)-2-(1-(4,5,6,7-tetrahydro-[1,2,3]triazolo[1,5-a]pyrazine-5-carbonyl)piperidin-4-ylidene)acetonitrile]		7	19	99
CN(C(=O)N1CCC(=C(C#N)c2ccc(Cl)cc2)CC1)C1CCOCC1 [Compound 69, 4-((4-chlorophenyl)(cyano)methylene)-N-methyl-N-(tetrahydro-2H-pyran-4-yl)piperidine-1-carboxamide]		10	16	98
CCCOC1CCN(C(=O)N2CCC(=C(C#N)c3ccc(Cl)cc3)CC2)CC1 [Compound 134, 2-(4-chlorophenyl)-2-(1-(4-propoxypiperidine-1-carbonyl)piperidin-4-ylidene)acetonitrile]		12	13	98
